In patent publication US11143585B2, “Photoelectrical device for concentration detection, method for concentration detection thereof and method for testing an antibiotic susceptibility on bacteria” (priority 2018, dated 2021):

Columns and labels:
[1] = test system: oxacillin-resistant Staphylococcus aureus (ORSA); test: Antibiotic effectiveness test with the photoelectrical device, fluid sample containing ORSA and oxacillin; assay type: cell-based
Protocol: (§1) FIG. 3A is an electric current-voltage curve obtained by the photoelectrical device of the present invention for detecting an effectiveness of an antibiotic on bacteria. In the method for testing the effectiveness of an antibiotic on bacteria of the present invention, firstly, a fluid sample containing bacteria and an antibiotic is prepared, wherein the bacterial concentration of the fluid sample is between 10^4 and 10^5 CFU/ml. Use FIG. 3A as an example, the fluid sample to be detected contains an antibiotic: oxacillin, and bacteria: oxacillin-resistant Staphylococcus aureus (ORSA, hereinafter as ORSA for short). There is also another control sample used as a control group containing oxacillin and oxacillin-susceptible Staphylococcus aureus (OSSA, hereinafter as OSSA for short). In FIG. 3A, curve B3 is the background information and is drawn by detecting a sterile fluid sample. Curve OS31 is drawn by detecting the control sample containing OSSA and oxacillin, and curve OR31 is drawn by detecting a fluid sample containing ORSA and oxacillin.
Both the above fluid sample and the control sample are added with oxacillin of a concentration of about 4 μg/ml in the tryptic soy broth (TSB) to incubate OSSA and ORSA respectively, and both of them respectively contain OSSA and ORSA with a bacterial concentration of 6×10^4 CFU/ml. After preparing the above fluid sample and the control sample, the bacteria (ORSA) in the fluid sample and the bacteria (OSSA) in the control sample are incubated, wherein the time for incubating the bacteria can be more than 3 hours, for example, 4 hours. […]
(§2) FIG. 3B is a diagram illustrating the relationship between the change rate of electric current and the incubation time measured on the photoelectric device 100 after being incubated for different periods of time based on FIG. 3A, wherein the vertical axis represents the change rate of electric current and its definition is the same as the above mathematical formula (1), while the horizontal axis represents the incubation time (also referred to as incubation period). […]

[2] = test system: oxacillin-susceptible Staphylococcus aureus (OSSA); test: Antibiotic effectiveness test with the photoelectrical device, control sample containing OSSA and oxacillin; assay type: cell-based; conditions: oxacillin about 4 μg/ml in TSB, initial 6×10^4 CFU/ml
Protocol: as §1, with “Curve OS31 is drawn by detecting the control sample containing OSSA and oxacillin, and curve OR31 is drawn by detecting a fluid sample containing ORSA and oxacillin.” left out
as §2

`Cc1onc(-c2ccccc2)c1C(=O)N[C@@H]1C(=O)N2[C@@H]1SC(C)(C)[C@@H]2C(=O)O` [oxacillin] was tested, and the “change rate of electric current of the ORSA fluid sample” value ([1]; oxacillin about 4 μg/ml in TSB, initial 6×10^4 CFU/ml, after 4 hours of incubation time, FIG. 3B curve OR32) was “more than 10%”, the “inhibition of ORSA reproduction (conclusion from change rate of electric current)” value ([1]; oxacillin about 4 μg/ml in TSB, initial 6×10^4 CFU/ml, increasing incubation time) was “not inhibited by oxacillin” and the “difference between the change rates of electric current of the ORSA fluid sample and the OSSA control sample” value ([1]; oxacillin about 4 μg/ml, after more than 3 hours of incubation period, FIG. 3B) was ≥ 4%. The “change in the change rate of electric current of the OSSA sample as incubation time increases” value ([2]; FIG. 3B curve OS32) was “no significant change” and the “inhibition of OSSA reproduction (conclusion from change rate of electric current)” value ([2]; increasing incubation time) was “inhibited by oxacillin and difficult to reproduce”.
